From US20120039865A1, “IDENTIFICATION OF SORTILIN AS A NEURONAL RECEPTOR FOR THE FRONTOTEMPORAL DEMENTIA PROTEIN, PROGRANULIN” (Yale University, priority 2008, published 2012)

Key:
[1] = system: Rat (Sprague-Dawley) cortical neurons; experiment: AP-tagged ligand binding to cultured rat cortical neurons
Protocol: (§1) Rat (Sprague-Dawley) cortical neurons were isolated from E18 embryos and cultured in vitro for 3-21 days. Cultures were maintained in Neurobasal-A medium supplemented with B27, GLUTAMAX™ (2 mM), sodium pyruvate (1 mM), penicillin, and streptomycin. The binding of 10 nM AP-PGRN or 10 nM AP was detected as a dark reaction product produced by alkaline phosphatase (AP). Binding was measured as follows. The AP tagged ligand (in NBA) was incubated with the cortical neurons for 1 hr at 4° C., washed three times with HBH buffer, fixed with formaldehyde, and after washing again with HBH the neurons were incubated in a 67° C. oven to inactivate the endogenous AP. The tagged AP was then visualized using AP substrate 5-bromo-4-chloro-3-indolyl phosphate/nitro blue tetrazolium, which results in a dark precipitate. […] The addition of 100 nM Flag-PGRN displaced 10 nM AP-PGRN (FIG. 1C, middle panel).

[2] = system: mouse E17 cortical neurons; experiment: AP-PGRN binding to mouse cortical neurons (wild type, sortilin +/- and -/-)
Protocol: as §1
Binding was measured according to the methods described above by preincubating 100 nM PGRN with the cortical neurons for 1 hr and using a 5 nM AP-PGRN and 100 nM untagged PGRN mixture. […]
Gene-targeted sortilin −/− and +/− mice from Anders Nykjaer, M.D., Ph.D., Aarhus University, Aarhus, Denmark, were used to obtain cultures of cortical neurons. The binding of 2 nM AP-PGRN to cortical neurons isolated from sortilin −/− (FIG. 3B, left panel) and +/− (FIG. 3B, right panel) mice was evaluated. […]

[3] = target: T1, sortilin-1 (Sort1; PGRN-R) (Mus musculus, UniProt Q6PHU5); experiment: AP-PGRN binding to COS-7 cells transfected with Sort1 cDNA
T1 construct: host or cells: COS-7 (ATCC No. CRL-1651)
T1 sequence (Q6PHU5 74-825): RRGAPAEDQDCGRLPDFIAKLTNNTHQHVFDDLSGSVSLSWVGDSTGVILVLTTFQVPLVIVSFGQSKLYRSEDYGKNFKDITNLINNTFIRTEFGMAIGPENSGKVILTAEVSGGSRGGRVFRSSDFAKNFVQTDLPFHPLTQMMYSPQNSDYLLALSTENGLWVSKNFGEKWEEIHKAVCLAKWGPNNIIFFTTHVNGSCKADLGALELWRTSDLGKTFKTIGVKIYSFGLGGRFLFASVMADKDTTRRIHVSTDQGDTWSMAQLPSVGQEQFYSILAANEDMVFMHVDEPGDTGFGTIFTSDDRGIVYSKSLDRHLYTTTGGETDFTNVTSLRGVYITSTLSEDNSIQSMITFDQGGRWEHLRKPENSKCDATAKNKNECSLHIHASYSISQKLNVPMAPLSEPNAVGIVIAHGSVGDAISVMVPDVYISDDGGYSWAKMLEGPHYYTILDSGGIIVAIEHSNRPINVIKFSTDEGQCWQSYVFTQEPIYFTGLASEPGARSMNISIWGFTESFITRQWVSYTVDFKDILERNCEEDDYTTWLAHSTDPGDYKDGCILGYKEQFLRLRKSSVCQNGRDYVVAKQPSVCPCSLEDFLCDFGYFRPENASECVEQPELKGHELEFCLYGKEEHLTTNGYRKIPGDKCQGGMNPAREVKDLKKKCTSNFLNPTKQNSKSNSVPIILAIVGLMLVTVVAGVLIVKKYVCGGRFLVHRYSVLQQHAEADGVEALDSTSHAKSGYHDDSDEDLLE
Protocol: as §1
To determine the molecular nature of the neuronal binding site of PGRN, expression cloning experiments utilizing AP-PGRN as a tagged ligand were conducted. COS-7 (ATCC No. CRL-1651) cells were transfected with expression vectors containing mouse cDNAs using FUGENE® 6 according to manufacturer's specifications (Roche). […]

SorLA = target: T2, SorLA (Homo sapiens, UniProt Q92673); experiment: AP-PGRN binding to COS-7 cells expressing SorLA; details: 120 nM AP-PGRN
T2 construct: host or cells: COS-7
T2 sequence (Q92673 82-2214): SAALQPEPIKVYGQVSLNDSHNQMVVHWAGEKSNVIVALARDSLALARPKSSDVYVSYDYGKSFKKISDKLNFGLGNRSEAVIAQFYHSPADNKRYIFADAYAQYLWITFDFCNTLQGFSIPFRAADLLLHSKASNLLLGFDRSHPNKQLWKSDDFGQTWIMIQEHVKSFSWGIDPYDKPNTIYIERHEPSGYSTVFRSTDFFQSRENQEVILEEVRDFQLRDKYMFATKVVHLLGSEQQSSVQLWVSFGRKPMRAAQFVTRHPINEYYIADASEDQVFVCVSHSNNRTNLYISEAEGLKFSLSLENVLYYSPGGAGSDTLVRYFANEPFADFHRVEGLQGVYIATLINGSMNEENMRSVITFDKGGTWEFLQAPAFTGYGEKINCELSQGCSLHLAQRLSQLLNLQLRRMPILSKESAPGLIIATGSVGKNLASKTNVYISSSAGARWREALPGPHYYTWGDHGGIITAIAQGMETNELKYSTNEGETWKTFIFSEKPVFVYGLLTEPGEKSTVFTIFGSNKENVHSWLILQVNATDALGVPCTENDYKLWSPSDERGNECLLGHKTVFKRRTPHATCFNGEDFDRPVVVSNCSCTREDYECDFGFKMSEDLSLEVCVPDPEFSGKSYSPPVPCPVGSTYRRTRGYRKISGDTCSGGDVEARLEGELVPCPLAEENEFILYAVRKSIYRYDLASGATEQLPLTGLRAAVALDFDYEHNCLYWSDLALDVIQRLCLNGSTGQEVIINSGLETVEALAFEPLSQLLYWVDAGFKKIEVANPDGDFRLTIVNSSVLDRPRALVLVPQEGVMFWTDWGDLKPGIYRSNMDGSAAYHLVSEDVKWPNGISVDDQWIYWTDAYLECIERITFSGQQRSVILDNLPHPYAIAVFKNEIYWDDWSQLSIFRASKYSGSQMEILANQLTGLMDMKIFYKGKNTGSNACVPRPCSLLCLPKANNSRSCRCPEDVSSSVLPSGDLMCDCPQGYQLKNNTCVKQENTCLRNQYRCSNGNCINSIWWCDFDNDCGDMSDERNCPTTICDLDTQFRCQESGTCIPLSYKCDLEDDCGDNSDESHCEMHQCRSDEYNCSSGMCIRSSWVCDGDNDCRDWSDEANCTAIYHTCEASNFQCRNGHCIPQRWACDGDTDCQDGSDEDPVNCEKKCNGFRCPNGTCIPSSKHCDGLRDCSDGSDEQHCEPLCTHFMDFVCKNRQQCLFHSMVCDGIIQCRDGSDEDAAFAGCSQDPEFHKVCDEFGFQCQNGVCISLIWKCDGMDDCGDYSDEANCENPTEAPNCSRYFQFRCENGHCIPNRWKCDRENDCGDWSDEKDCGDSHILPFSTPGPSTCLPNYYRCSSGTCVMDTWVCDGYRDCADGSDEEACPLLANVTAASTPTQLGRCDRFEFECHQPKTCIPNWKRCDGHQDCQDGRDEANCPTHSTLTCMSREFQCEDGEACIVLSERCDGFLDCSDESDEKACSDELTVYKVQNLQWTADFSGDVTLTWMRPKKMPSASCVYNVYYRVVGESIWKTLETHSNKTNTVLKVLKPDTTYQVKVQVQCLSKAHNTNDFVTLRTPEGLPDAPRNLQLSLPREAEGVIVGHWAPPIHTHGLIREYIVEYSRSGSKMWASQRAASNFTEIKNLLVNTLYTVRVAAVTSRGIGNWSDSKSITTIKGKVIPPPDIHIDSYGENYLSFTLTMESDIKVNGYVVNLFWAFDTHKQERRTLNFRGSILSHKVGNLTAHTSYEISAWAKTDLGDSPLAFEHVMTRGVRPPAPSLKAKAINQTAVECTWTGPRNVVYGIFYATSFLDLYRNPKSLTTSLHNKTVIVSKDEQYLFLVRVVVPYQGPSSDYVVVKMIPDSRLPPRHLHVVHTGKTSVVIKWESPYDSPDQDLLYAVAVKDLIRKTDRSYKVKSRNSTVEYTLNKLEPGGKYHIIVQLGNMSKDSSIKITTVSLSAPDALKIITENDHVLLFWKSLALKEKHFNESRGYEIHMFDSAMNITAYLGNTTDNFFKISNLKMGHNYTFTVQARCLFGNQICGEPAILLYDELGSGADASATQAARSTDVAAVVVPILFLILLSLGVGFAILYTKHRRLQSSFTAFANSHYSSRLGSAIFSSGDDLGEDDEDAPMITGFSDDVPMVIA
Text: (§2) The human SorLA expression vector was provided by Anders Nykjaer, M.D., Ph.D., Aarhus University, Aarhus, Denmark (Jacobsen, L., et al., J. Biol. Chem. 276:22788-22796 (2001); Gliemann, J., et al., Biochem J. 381:203-212 (2004); GenBank Accession No. U60975), and the mouse SorCS1 expression vector in pCMV-Sport6 was obtained from Open Biosystems (GenBank Accession No. BC007486). […] A fragment of PGRN, termed PGRN-E in the literature, binds to sortilin with the same affinity as does full length PGRN (data not shown).

SorCS1 = target: T3, SorCS1 (Mus musculus, UniProt Q9JLC4); experiment: AP-PGRN binding to COS-7 cells expressing SorCS1; details: 120 nM AP-PGRN
T3 construct: host or cells: COS-7
T3 sequence (Q9JLC4 34-1167): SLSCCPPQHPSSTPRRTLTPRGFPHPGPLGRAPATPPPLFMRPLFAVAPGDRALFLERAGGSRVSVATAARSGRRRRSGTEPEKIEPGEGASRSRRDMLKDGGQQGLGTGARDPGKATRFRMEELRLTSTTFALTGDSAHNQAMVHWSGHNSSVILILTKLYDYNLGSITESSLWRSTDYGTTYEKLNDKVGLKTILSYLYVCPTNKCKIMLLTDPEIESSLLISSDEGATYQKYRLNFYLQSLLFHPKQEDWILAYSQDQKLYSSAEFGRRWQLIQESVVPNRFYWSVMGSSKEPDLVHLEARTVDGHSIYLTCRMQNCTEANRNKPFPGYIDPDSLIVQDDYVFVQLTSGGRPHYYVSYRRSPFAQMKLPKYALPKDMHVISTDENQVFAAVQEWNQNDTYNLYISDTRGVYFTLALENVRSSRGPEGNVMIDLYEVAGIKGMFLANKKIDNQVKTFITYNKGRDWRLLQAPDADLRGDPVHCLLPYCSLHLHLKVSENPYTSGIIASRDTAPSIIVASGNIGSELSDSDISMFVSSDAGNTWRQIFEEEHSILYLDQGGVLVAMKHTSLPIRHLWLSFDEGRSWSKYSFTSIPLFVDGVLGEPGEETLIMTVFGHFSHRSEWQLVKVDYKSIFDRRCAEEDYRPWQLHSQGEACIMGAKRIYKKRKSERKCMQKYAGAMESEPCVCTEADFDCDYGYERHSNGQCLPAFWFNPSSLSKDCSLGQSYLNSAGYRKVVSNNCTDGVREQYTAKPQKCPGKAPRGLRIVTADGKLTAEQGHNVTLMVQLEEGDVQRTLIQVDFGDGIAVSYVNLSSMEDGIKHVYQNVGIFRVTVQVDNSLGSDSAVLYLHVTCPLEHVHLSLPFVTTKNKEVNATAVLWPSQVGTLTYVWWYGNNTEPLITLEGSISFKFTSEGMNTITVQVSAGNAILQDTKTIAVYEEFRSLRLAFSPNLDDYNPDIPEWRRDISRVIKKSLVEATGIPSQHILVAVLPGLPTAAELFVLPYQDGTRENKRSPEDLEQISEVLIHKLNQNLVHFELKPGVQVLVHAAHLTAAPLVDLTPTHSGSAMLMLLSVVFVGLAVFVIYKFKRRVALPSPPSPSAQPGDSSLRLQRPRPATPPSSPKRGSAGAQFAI
Text: as §2

[4] = system: COS-7 cells transfected with empty vector; experiment: AP-PGRN binding to COS-7 cells transfected with empty vector; details: 20 nM AP-PGRN
Protocol: To determine the molecular nature of the neuronal binding site of PGRN, expression cloning experiments utilizing AP-PGRN as a tagged ligand were conducted. COS-7 (ATCC No. CRL-1651) cells were transfected with expression vectors containing mouse cDNAs using FUGENE® 6 according to manufacturer's specifications (Roche). An arrayed adult mouse brain cDNA library (OriGene) of 225,000 clones was screened in pools of 5,000 at a time, as well as a library consisting of 352 individual preparations of cDNAs encoding transmembrane proteins (GFC-transfection array panel, OriGene). The COS-7 cells that specifically bound AP-PGRN (5 nM) contained a single cDNA clone, which encoded a single-pass, membrane-spanning surface glycoprotein that supports high affinity AP-PGRN binding (FIG. 2A, upper-right panel). […] As in mouse cortical neurons, binding of 5 nM AP-PGRN to Sort-1 (PGRN-R) in COS-7 cells was displaceable by excess untagged PGRN (100 nM) and was saturable, with an apparent Kd of 6 nM (FIG. 2A, lower-right panel, and 2B). The binding affinity of AP-PRGN measured for Sort1-transfected COS-7 cells and for neurons was indistinguishable, with a Kd of 5-10 nM (FIG. 2B, 6 nM, and data not shown). In both cases, unlabeled 100 nM PGRN displaced binding (FIG. 2A, lower-right panel, and FIG. 3A, right panel).

[5] = target: T4, purified ectodomain of Sort1 (amino acids 60-725 of the human sequence) (Homo sapiens, UniProt Q99523); experiment: Physical complex of purified proteins isolated by affinity chromatography; type: binding; details: data not shown
T4 sequence (Q99523 60-725): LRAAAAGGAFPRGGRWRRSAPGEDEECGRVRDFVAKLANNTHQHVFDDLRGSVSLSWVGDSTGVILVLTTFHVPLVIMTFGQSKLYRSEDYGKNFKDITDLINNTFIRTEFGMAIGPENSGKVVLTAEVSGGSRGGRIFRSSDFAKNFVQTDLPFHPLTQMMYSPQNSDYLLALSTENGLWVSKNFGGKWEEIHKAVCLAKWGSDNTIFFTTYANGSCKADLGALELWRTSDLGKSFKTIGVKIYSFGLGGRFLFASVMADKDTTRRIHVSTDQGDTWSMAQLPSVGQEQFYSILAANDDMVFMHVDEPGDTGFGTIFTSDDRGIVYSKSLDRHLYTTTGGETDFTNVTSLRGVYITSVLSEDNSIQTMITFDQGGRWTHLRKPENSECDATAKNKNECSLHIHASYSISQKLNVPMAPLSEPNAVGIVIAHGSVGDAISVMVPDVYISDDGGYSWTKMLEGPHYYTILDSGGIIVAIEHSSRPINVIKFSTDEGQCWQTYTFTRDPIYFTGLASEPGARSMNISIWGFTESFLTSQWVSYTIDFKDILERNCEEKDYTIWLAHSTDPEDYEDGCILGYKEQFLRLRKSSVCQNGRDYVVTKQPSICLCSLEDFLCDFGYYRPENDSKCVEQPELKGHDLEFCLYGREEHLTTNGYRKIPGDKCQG

binding to cultured cortical neurons (dark AP reaction product) ([1]; 10 nM AP-tagged ligand, 1 hr at 4° C.) | AP-PGRN binding in sortilin -/- cortical neurons ([2]; 2 nM AP-PGRN, neurons from sortilin -/- vs +/- mice) | Kd ([2]; neurons, species not stated, data not shown, read-out: binding affinity Kd for neurons) | binding to Sort1-transfected COS-7 cells ([3]; 20 nM ligand) | Kd ([3]; read-out: binding affinity Kd for Sort1-transfected COS-7 cells) | affinity for SorLA (SorLA) | affinity for SorCS1 (SorCS1) | displacement of AP-PGRN binding ([1]; 100 nM competitor against 10 nM AP-PGRN) | complex formation with Sort1 ectodomain [5] | Substance | binding to empty-vector COS-7 cells [4]
specifically and discreetly bound | 30 % of control values | 5 to 10 nM | bound | 5 to 10 nM | no affinity | no affinity | – | – | AP-PGRN: alkaline-phosphatase (AP) tagged human progranulin fusion protein produced in HEK293T cells | did not bind
– | – | – | – | – | – | – | displaced | formed a physical complex | Flag-PGRN: FLAG-tagged PGRN produced by HEK293T cell transfection, purified by anti-FLAG affinity gel | –
